# Like-named read-outs stand apart in the source and are kept apart here.
# Legend:
# [1] = Plasma and brain exposure in satellite lesioned rats; type: in vivo, rat; conditions: rat, mean ± SD; for concentration at 90 min: ip, 3 mg/kg, 90 min after dosing; for concentration at 60 min: po, 30 mg/kg, 60 min after dosing
# Experimental: Satellite lesioned rats (400–450 g) were anesthetized with isoflurane and sacrificed by exsanguination. Blood samples were collected in EDTA centrifuged 10 min at 3000 rpm at 4°C to obtain plasma and stored at −20°C prior the analysis. Brains were perfused by saline collected and immediately stored at −20°C prior the analysis. Brain samples were added to 4 volumes of water before being homogenized. A structural analog compound was added as internal standard to the samples and proteins were crashed using 8 volumes of acetonitrile. Compounds were analyzed on an API5000 mass spectrometer (ABSciex, Framingham, MA, USA.) equipped with a turbo ion spray source and interfaced with an Agilent 1290 Infinity LC system (Agilent Technologies, Waldbroon, Germany). The mass spectrometer was operated in the positive ionization mode with Multiple Reactions Monitoring used to quantify the various analytes (407 to 292 for Tozadenant; 398 to 109 for Radiprodil, 346 to 105 for Sch-58261 and 342 to 100 for Co-101244). A Waters HSS T3 column (2.1×30 mm, 1.8 µm) was used. The mobile phase consisted of 100% water with 0.1% formic acid (phase A) and 100% acetonitrile with 0.1% formic acid (phase B). The flow rate was 1 mL/min. A linear gradient was performed from 0 to 1 min (95 to 30% phase A), a jump to 90% B in 0.01 min, a hold period of 1.29 min at 90% phase B followed by equilibration at the initial condition was applied before the following injection.
# Before undertaking the study, each A2A and NR2B antagonist was tested individually. The doses were selected on the basis of preliminary dose-response curves performed separately for each drug and submaximal dose (i.e. response observed is not at its maximal level) of each drug was selected for the combination studies. The two drugs were administered separately via an intraperitoneal (ip) injection with a 2-minute interval between the two drugs. Five minutes after the second injection, animals were placed in the testing cage for behavioural recording. Due to formulation and exposure issues, Tozadenant and Radiprodil had to be administered orally and therefore recording was started 60 minutes post dosing at this corresponds to maximum plasma concentrations. Eight drug-naïve animals were used for each of the four procedures; 32 in total for each combination. All behavioral experiments were conducted between 8.00 AM and 2.00 PM at the latest. Preliminary pharmacokinetic assays investigated the plasma and brain disposition of selected drugs administered alone or in combination (ie. Tozadenant/Radiprodil, and Sch-58261/Co-101244; 3 animals per group). Tozadenant and Radiprodil were measured in samples obtained 60 minutes after single oral administration at 30 mg/kg. Sch-58261 and Co-101244 were measured in samples collected 90 min after single intraperitoneal administration at 3 mg/kg.
# [2] = system: unilateral 6-OHDA-lesioned rats; experiment: L-Dopa-induced contralateral rotations in rotometers, add-on therapy; type: in vivo, rat; conditions: add-on to L-Dopa 25 mg/kg ip; for Contralateral rotations, drugs alone vs vehicle, time for which significant: 10-min intervals, 120 min recording; for Time for which the drug given separately was active in increasing or prolonging the L-Dopa effect on contralateral rotations: each given separately
# Experimental: To protect norepinephrinergic neurons, animals were administered imipramine HCl (Sigma) 15 minutes before surgery. They were subsequently anesthetized with ketamine (Ceva, 75 mg/kg) and xylazine (Bayer, 10 mg/kg) and placed in stereotaxic frame (David Kopf Instrument). 6-OHDA was injected into the right ascending medial forebrain bundle at the following coordinates (in mm) relative to bregma and surface of the dura, AP = −3.5, ML = −1.5, DV = −8.7. Each rat received one injection of 6-OHDA (4 µg/µl) over a period of 5 minutes (0.5 µl/min) for a total of 10 µg per rat. Animals were monitored for 3 weeks to ensure full recovery and habituation to the environment and experimenters.
# On day 21 post surgery, all rats were challenged with a small dose of subcutaneously administered apomorphine (Sigma, 0.05 mg/kg). Rats showing more than 90 contralateral rotations (360°) over a 45-minute recording period were included in the study. […] For each experiment, rats were allocated to the different experimental groups in order to get the same mean level of basal activity measured at the apomorphine challenge amongst the different experimental groups.
# The rats tested one week earlier for general activity (actometers) were once again placed in clear acrylic individual chambers (50×45 cm) with the same treatment (drug and dose) than that previously received plus L-Dopa. Eight chambers were placed on a level, clear glass bottom, held by a robust frame, and were subdivided into four individual test cages of 25×22 cm. A removable acrylic plate served as a lid.
# Rotational behaviour was recorded using a home-made computerized system. Rats were fixed in a harness and linked to mechanical sensors connected directly to a computer. Each 360° clock-wise or counter clock-wise turn was automatically recorded for up to 120 minutes at the maximum. Throughout the experiments, rats were allocated to individual test cages.
# Four different combinations were administered as add-on treatment to a low active dose of L-Dopa (25 mg/kg, ip) without any dopa decarboxylase inhibitor to avoid any additional pharmacokinetic interaction. The doses of the compounds were selected on the basis of preliminary dose-response curves performed separately for each drug. To avoid ceiling effect with L-Dopa, only submaximal doses of each drug were selected for testing (as it was done previously for monotherapy). Eight L-Dopa naïve animals were tested for each of the four pharmacological condition: vehicle and L-Dopa (25 mg/kg); A2A antagonist followed by vehicle and L-Dopa; vehicle followed by NR2B antagonist and L-Dopa; A2A antagonist followed by NR2B and L-Dopa. Due to the dominance of the L-Dopa-effect on the lesioned striatum, the unilateral 6-OHDA-lesioned rats rotated after the drugs administration and behavioral activity was recorded in rotometers (i.e. level of contralateral rotations).
# All drugs were administered i.p. 25 minutes before behavioural recording, except for the Tozadenant and Radiprodil combination which was administered orally 60 minutes before behavioural recording. As Radiprodil was administered orally, L-Dopa was given 45 minutes after the Radiprodil injection whereas for the other combinations L-Dopa was given 15 minutes after the NR2B drug. The drugs, the doses and the combinations given in co-administration to L-Dopa are described in Table 4 .
# The impact of treatment with A2A or NR2B receptor antagonists, given alone or in combination, on the effect of L-Dopa on contralateral rotations was also analysed with a three-way mixed ANOVA. The ANOVA included the A2A and the NR2B receptor antagonists (both, 2 levels, vehicle and the drug) as between-group factors combined with time (12 levels) as within-subjects factor. […] The ability of the combination to increase and prolong the activity of L-Dopa was also explored. Consequently, drug effects were analyzed for every 10-min time interval. […]
# [3] = Sch-58261 0.3 mg/kg ip, Co-101244 1 mg/kg ip
# [4] = brain, administered alone, oral 30 mg/kg, expressed per g tissue, 3 animals, read-out: Brain concentration
# [5] = brain, administered in combination Tozadenant + Radiprodil, both oral 30 mg/kg, expressed per g tissue, 3 animals, read-out: Brain concentration
# [6] = plasma, administered alone, oral 30 mg/kg, 3 animals, read-out: Plasma concentration
# [7] = plasma, administered in combination Tozadenant + Radiprodil, both oral 30 mg/kg, 3 animals, read-out: Plasma concentration
# [8] = Tozadenant 30 mg/kg po, Radiprodil 3 mg/kg po
# [9] = Preladenant 0.03 mg/kg ip, Radiprodil 0.3 mg/kg ip
SMILES,"concentration at 90 min ([1]; brain, administered alone, ip 3 mg/kg, expressed per g tissue, 3 animals (Co-101244 n = 2), read-out: Brain concentration) [ng/mL]","concentration at 90 min ([1]; brain, administered in combination Sch-58261+Co-101244, both ip 3 mg/kg, expressed per g tissue, 3 animals, read-out: Brain concentration) [ng/mL]","concentration at 90 min ([1]; plasma, administered alone, ip 3 mg/kg, 3 animals (Co-101244 n = 2), read-out: Plasma concentration) [ng/mL]","concentration at 90 min ([1]; plasma, administered in combination Sch-58261+Co-101244, both ip 3 mg/kg, 3 animals, read-out: Plasma concentration) [ng/mL]","Contralateral rotations, drugs main effect, p (three-way mixed ANOVA) [2, 3]","Contralateral rotations, drugs × time effect, p (three-way mixed ANOVA) [2, 3]","concentration at 60 min [1, 4] [ng/mL]","concentration at 60 min [1, 5] [ng/mL]","concentration at 60 min [1, 6] [ng/mL]","concentration at 60 min [1, 7] [ng/mL]","Contralateral rotations, drugs alone vs vehicle, p (planned contrasts on each 10-min interval) [2, 8]","Contralateral rotations, drugs main effect, p (three-way mixed ANOVA) [2, 8]","Contralateral rotations, drugs × time effect, p (three-way mixed ANOVA) [2, 8]","Contralateral rotations, drugs alone vs vehicle, time for which significant [2, 8]","Time for which the drug given separately was active in increasing or prolonging the L-Dopa effect on contralateral rotations [2, 8] [min]","Contralateral rotations, drugs alone vs vehicle, p (planned contrasts on each 10-min interval) [2, 9]","Contralateral rotations, drugs main effect, p (three-way mixed ANOVA) [2, 9]","Contralateral rotations, drugs × time effect, p (three-way mixed ANOVA) [2, 9]"
Nc1nc2c(cnn2CCc2ccccc2)c2nc(-c3ccco3)nn12 [Sch-58261],246 ± 34.7,264 ± 38.3,97.2 ± 10.1,112 ± 4.16,p<0.05,p<0.001,–,–,–,–,–,–,–,–,–,–,–,–
COc1ccc(N2CCOCC2)c2sc(NC(=O)N3CCC(C)(O)CC3)nc12 [Tozadenant],–,–,–,–,–,–,180 ± 40,110 ± 40,6050 ± 950,5040 ± 140,< 0.05,p<0.001,p<0.001,80 ′,80,–,–,–
O=C(Nc1ccc2[nH]c(=O)oc2c1)C(=O)N1CCC(Cc2ccc(F)cc2)CC1 [Radiprodil],–,–,–,–,–,–,2630 ± 560,2590 ± 2480,4960 ± 850,5590 ± 2930,< 0.05,p<0.01,p<0.001,20 ′,20,Not significant,Not significant,p<0.01

# Reference: paper PMC4267740, “Unprecedented Therapeutic Potential with a Combination of A2A/NR2B Receptor Antagonists as Observed in the 6-OHDA Lesioned Rat Model of Parkinson's Disease” (PLoS ONE, 2014)
